Biological target: 3-phosphoinositide-dependent protein kinase 1 (Homo sapiens) (UniProt O15530)
Assay: Inhibition of PDK1

How did the IC50 turn out when `CN(C)Cc1ccc(-c2cnn3c(-c4cccc(NC(=O)c5cccc(C(F)(F)F)c5)c4)ccnc23)cc1` [N-[3-(3-{4-[(dimethylamino)methyl]phenyl}pyrazolo[1,5-a]pyrimidin-7-yl)phenyl]-3-(trifluoromethyl)benzamide] was run?
The IC50 was over 2000 nM.
